From patent publication US12102087B2 (priority 2012, dated 2024)
Where two headings read alike, the source gives them in different places.

Key:
Type in all cases: in vivo
[1] = tested on: Phytophthora infestans; assay: whole plant or invertebrate; conditions: for pest or weed control at 0.2 ppm: application rate 0.2 ppm a.i.
[2] = tested on: Sphaerotheca fuliginea; assay: Sphaerotheca test (cucumbers)/preventive
Excerpt: (§1) A synergistic effect of fungicides is always present when the fungicidal activity of the active compound combinations exceeds the total of the activities of the active compounds when applied individually. The expected activity for a given combination of two active compounds can be calculated as follows (cf. Colby, S. R., “Calculating Synergistic and Antagonistic Responses of Herbicide Combinations”, Weeds 1967, 15, 20-22):
(§2) If • X is the efficacy when active compound A is applied at an application rate of m ppm (or g/ha), • Y is the efficacy when active compound B is applied at an application rate of n ppm (or g/ha), • E is the efficacy when the active compounds A and B are applied at application rates of m and n ppm (or g/ha), respectively, and
Sphaerotheca Test (Cucumbers)/Preventive • Solvent: 24.5 parts by weight of acetone • 24.5 parts by weight of dimethylacetamide • Emulsifier: 1 part by weight of alkylaryl polyglycol ether
(§3) To produce a suitable preparation of active compound, 1 part by weight of active compound is mixed with the stated amounts of solvent and emulsifier, and the concentrate is diluted with water to the desired concentration.
(§4) To test for preventive activity, young plants are sprayed with the preparation of active compound at the stated rate of application. After the spray coating has dried on, the plants are inoculated with an aqueous spore suspension of Sphaerotheca fuliginea. The plants are then placed in a greenhouse at approximately 23° C. and a relative atmospheric humidity of approximately 70%.
The test is evaluated 7 days after the inoculation. 0% means an efficacy which corresponds to that of the untreated control, while an efficacy of 100% means that no disease is observed.

[3] = tested on: Venturia inaequalis; assay: Venturia test (apples)/preventive; conditions: for pest or weed control at 2 ppm: application rate 2 ppm a.i.; for pest or weed control at 4 ppm: application rate 4 ppm a.i.
Excerpt: as §1, §2
Venturia test (apples)/preventive • Solvent: 24.5 parts by weight of acetone • 24.5 parts by weight of dimethylacetamide • Emulsifier: 1 part by weight of alkylaryl polyglycol ether
as §3
To test for preventive activity, young plants are sprayed with the preparation of active compound at the stated rate of application. After the spray coating has dried on, the plants are inoculated with an aqueous conidia suspension of the causal agent of apple scab (Venturia inaequalis) and then remain for 1 day in an incubation cabinet at approximately 20° C. and a relative atmospheric humidity of 100%.
The plants are then placed in a greenhouse at approximately 21° C. and a relative atmospheric humidity of approximately 90%.
The test is evaluated 10 days after the inoculation. 0% means an efficacy which corresponds to that of the untreated control, while an efficacy of 100% means that no disease is observed.

[4] = tested on: Alternaria solani; assay: Alternaria test (tomatoes)/preventive; conditions: for pest or weed control at 20 ppm: application rate 20 ppm a.i.
Excerpt: as §1, §2
Alternaria Test (Tomatoes)/Preventive • Solvent: 24.5 parts by weight of acetone • 24.5 parts by weight of dimethylacetamide • Emulsifier: 1 part by weight of alkylaryl polyglycol ether
as §3
as §4, with “Alternaria solani.” for “Sphaerotheca fuliginea.”, “an incubation cabinet” for “a greenhouse”, “20°” for “23°”, “100%.” for “approximately 70%.”
The test is evaluated 3 days after the inoculation. 0% means an efficacy which corresponds to that of the untreated control while an efficacy of 100% means that no disease is observed.

[5] = Table 5, application rate 2.5 ppm a.i.
[6] = Table 7, application rate 1 ppm a.i.
[7] = Table 7, application rate 4 ppm a.i.
[8] = Venturia inaequalis, 240 h, Table 10, read-out: Efficacy in % found
[9] = Phytophthora infestans, 72 h, read-out: Efficacy in % found, Table 5, application rate 2.5 ppm a.i.
[10] = Table 3, application rate 1.25 ppm a.i.
[11] = Table 3, application rate 2.5 ppm a.i.
[12] = Phytophthora infestans, 72 h, read-out: Efficacy in % found, Table 4
[13] = Venturia inaequalis, 240 h, Table 11, application rate 0.5 ppm a.i., read-out: Efficacy in % found
[14] = Alternaria solani, 72 h, Table 2, read-out: Efficacy in % found
[15] = Table 6, application rate 2.5 ppm a.i.
[16] = Table 9, application rate 50 ppm a.i.
[17] = Phytophthora infestans, 72 h, read-out: Efficacy in % found, Table 3, application rate 2.5 ppm a.i.
[18] = Table 3, application rate 5 ppm a.i.

## Cn1cc(C(=O)Nc2cccc3c2[C@@H]2CC[C@H]3C2=C(Cl)Cl)c(C(F)F)n1 (racemic) [2.29, benzovindiflupyr]
[1]; [5]
  Efficacy in % found: 0%
[2]; Table 7, application rate 0.5 ppm a.i.
  Efficacy in % found: 0%

## OC(Cc1ccccc1Cl)(Cn1nc[nH]c1=S)C1(Cl)CC1 (stereo not shown) [1.41, prothioconazole]
[2]; Table 8, application rate 2 ppm a.i.
  Efficacy in % found: 19%

## CC(C)(C)C(O)(CCc1ccc(Cl)cc1)Cn1cncn1 (stereo not shown) [1.47, tebuconazole]
[3]; Venturia inaequalis, 240 h, Table 11, read-out: Efficacy in % found
  pest or weed control at 2 ppm: 11%

## Cn1cc(C(=O)Nc2ccc(F)cc2-c2ccc(Cl)c(Cl)c2)c(C(F)F)n1 [2.1, bixafen]
[2]; [6]
  Efficacy in % found: 10%
[3]; Table 10, application rate 1 ppm a.i.
  Efficacy in % found: 84%

## O=C(Nc1ccccc1-c1ccc(Cl)cc1)c1cccnc1Cl [2.2, boscalid]
[2]; Table 8, application rate 20 ppm a.i.
  Efficacy in % found: 62%
[2]; Table 8, application rate 40 ppm a.i.
  Efficacy in % found: 86%
[3]; Venturia inaequalis, 240 h, Table 11, application rate 20 ppm a.i., read-out: Efficacy in % found
  pest or weed control at 20 ppm: 85%

## O=C(NCCc1ncc(C(F)(F)F)cc1Cl)c1ccccc1C(F)(F)F [2.6, fluopyram]
[4]; Alternaria solani, 72 h, Table 1, application rate 1 ppm a.i., read-out: Efficacy in % found
  pest or weed control at 1 ppm: 48%
[2]; [7]
  Efficacy in % found: 19%
[3]; [8]
  pest or weed control at 4 ppm: 21%

## Cn1cc(C(=O)Nc2ccccc2-c2cc(F)c(F)c(F)c2)c(C(F)F)n1 [2.8, fluxapyroxad]
[1]; [5]
  Efficacy in % found: 0%
[2]; [6]
  Efficacy in % found: 38%
[3]; Table 10, application rate 0.5 ppm a.i.
  Efficacy in % found: 25%

## CC(C)C1C2CCC1c1c(NC(=O)c3cn(C)nc3C(F)F)cccc12 (stereo not shown) [2.12, isopyrazam]
[1]; [5]
  Efficacy in % found: 0%
[2]; [6]
  Efficacy in % found: 19%
[2]; Table 7, application rate 2 ppm a.i.
  Efficacy in % found: 57%

## CC(C)CC(C)c1sccc1NC(=O)c1cn(C)nc1C(F)(F)F (stereo not shown) [2.21, penthiopyrad]
[4]; Alternaria solani, 72 h, Table 1, application rate 0.5 ppm a.i., read-out: Efficacy in % found
  pest or weed control at 0.5 ppm: 39%
[1]; [9]
  pest or weed control at 2.5 ppm: 0%
[3]; [8]
  pest or weed control at 2 ppm: 8%

## COC(c1ccc(Cl)cc1Cl)C(C)NC(=O)c1cn(C)nc1C(F)F (stereo not shown) [2.27, N-[1-(2,4-dichlorophenyl)-1-methoxypropan-2-yl]-3-(difluoromethyl)-1-methyl-1H-pyrazole-4-carboxamide]
[1]; [9]
  pest or weed control at 2.5 ppm: 0%
[1]; Phytophthora infestans, 72 h, read-out: Efficacy in % found, Table 5, application rate 10 ppm a.i.
  pest or weed control at 10 ppm: 8%
[2]; [7]
  Efficacy in % found: 81%
[3]; [8]
  pest or weed control at 2 ppm: 31%
  pest or weed control at 4 ppm: 93%

## CCCCCCCCc1c(CC)nc2ncnn2c1N [3.1, ametoctradin]
[1]; [10]
  Efficacy in % found: 15%
[1]; [11]
  Efficacy in % found: 22%

## Cc1c(Br)c2ccc(F)cc2n1S(=O)(=O)c1ncn(S(=O)(=O)N(C)C)n1 [3.2, amisulbrom]
[1]; Table 4, application rate 1 ppm a.i.
  Efficacy in % found: 19%

## CO/C=C(/C(=O)OC)c1ccccc1Oc1cc(Oc2ccccc2C#N)ncn1 [3.3, azoxystrobin]
[3]; Table 11, application rate 0.25 ppm a.i.
  Efficacy in % found: 38%

## Cc1ccc(-c2c(Cl)nc(C#N)n2S(=O)(=O)N(C)C)cc1 [3.4, cyazofamid]
[1]; [12]
  pest or weed control at 0.2 ppm: 8%

## CSC1=N[C@@](C)(c2ccccc2)C(=O)N1Nc1ccccc1 [3.10, fenamidone]
[1]; Phytophthora infestans, 72 h, read-out: Efficacy in % found, Table 4, application rate 0.5 ppm a.i.
  pest or weed control at 0.5 ppm: 3%

## CO/N=C(/C1=NOCCO1)c1ccccc1Oc1ncnc(Oc2ccccc2Cl)c1F [3.12, fluoxastrobin]
[3]; [13]
  pest or weed control at 0.5 ppm: 44%

## COC(=O)N(OC)c1ccccc1COc1ccn(-c2ccc(Cl)cc2)n1 [3.17, pyraclostrobin]
[3]; [13]
  pest or weed control at 0.5 ppm: 19%

## CON=C(C(=O)OC)c1ccccc1CON=C(C)c1cccc(C(F)(F)F)c1 [3.22, trifloxystrobin]
[3]; [13]
  pest or weed control at 0.5 ppm: 77%

## N#Cc1c(Cl)c(Cl)c(Cl)c(C#N)c1Cl [5.4, chlorothalonil]
[4]; [14]
  pest or weed control at 20 ppm: 5%
[3]; Venturia inaequalis, 240 h, Table 12, application rate 20 ppm a.i., read-out: Efficacy in % found
  pest or weed control at 20 ppm: 14%

## [Cu+2].[OH-].[OH-] [5.5, copper hydroxide]
[1]; [15]
  Efficacy in % found: 18%
[2]; Table 9, application rate 10 ppm a.i.
  Efficacy in % found: 29%
[3]; Table 13, application rate 20 ppm a.i.
  Efficacy in % found: 25%

## [Cl-].[Cu+2].[Cu+2].[OH-].[OH-].[OH-] [5.8, copper oxychloride]
[1]; [15]
  Efficacy in % found: 0%
[2]; [16]
  Efficacy in % found: 10%
[3]; Table 13, application rate 50 ppm a.i.
  Efficacy in % found: 8%

## O=C1c2ccccc2C(=O)N1SC(Cl)(Cl)Cl [5.16, folpet]
[4]; Alternaria solani, 72 h, Table 2, application rate 10 ppm a.i., read-out: Efficacy in % found
  pest or weed control at 10 ppm: 0%

## Cc1cc(C)nc(Nc2ccccc2)n1 [7.7, pyrimethanil]
[4]; [14]
  pest or weed control at 20 ppm: 32%

## CC(C)[C@H](NC(=O)O)C(=O)N[C@H](C)c1nc2ccc(F)cc2s1 [9.1, benthiavalicarb]
[1]; Table 4, application rate 0.5 ppm a.i.
  Efficacy in % found: 52%

## COc1ccc(C(=CC(=O)N2CCOCC2)c2ccc(Cl)cc2)cc1OC [9.2, dimethomorph]
[1]; Phytophthora infestans, 72 h, read-out: Efficacy in % found, Table 4, application rate 1 ppm a.i.
  pest or weed control at 1 ppm: 20%

## Cc1ccc(C(C)NC(=O)[C@@H](NC(=O)OC(C)C)C(C)C)cc1 (stereo partly shown) [9.4, iprovalicarb]
[1]; Table 4, application rate 2 ppm a.i.
  Efficacy in % found: 9%

## O=[N+]([O-])c1cc(C(F)(F)F)c(Cl)c([N+](=O)[O-])c1Nc1ncc(C(F)(F)F)cc1Cl [14.4, fluazinam]
[1]; [17]
  pest or weed control at 2.5 ppm: 0%

## CCNC(=O)NC(=O)/C(C#N)=N/OC [15.9, cymoxanil]
[1]; [17]
  pest or weed control at 2.5 ppm: 0%
[1]; Phytophthora infestans, 72 h, read-out: Efficacy in % found, Table 3, application rate 5 ppm a.i.
  pest or weed control at 5 ppm: 0%

## OP(O)O [15.41, phosphorous acid]
[1]; [11]
  Efficacy in % found: 0%
[1]; [18]
  Efficacy in % found: 13%

## Cn1c(=O)c2sc3c(=O)n(C)c(=O)c3sc2c1=O [15.60, 2,6-dimethyl-1H,5H-[1,4]dithiino[2,3-c:5,6-c′]dipyrrole-1,3,5,7(2H,6H)-tetrone]
[4]; Alternaria solani, 72 h, Table 2, application rate 50 ppm a.i., read-out: Efficacy in % found
  pest or weed control at 50 ppm: 32%
[3]; Venturia inaequalis, 240 h, Table 12, application rate 50 ppm a.i., read-out: Efficacy in % found
  pest or weed control at 50 ppm: 24%

## CCCCCOC(=O)Nc1cccc(CON=C(c2ccccc2)c2nnnn2C)n1 [15.90, pentyl {6-[({[(1-methyl-1H-tetrazol-5-yl)(phenyl)methylidene]amino}oxy)methyl]pyridin-2-yl}carbamate]
[1]; [12]
  pest or weed control at 0.2 ppm: 10%

## fosetyl-aluminium [15.24]
[1]; [11]
  Efficacy in % found: 0%
[1]; [18]
  Efficacy in % found: 0%

## metalaxyl-M (mefenoxam) [12.10]
[1]; [10]
  Efficacy in % found: 10%
[1]; [11]
  Efficacy in % found: 36%

## metiram [5.25]
[1]; [15]
  Efficacy in % found: 15%
[2]; [16]
  Efficacy in % found: 29%
[3]; Table 13, application rate 100 ppm a.i.
  Efficacy in % found: 55%

## propamocarb hydrochloride [10.10]
[1]; [15]
  Efficacy in % found: 0%
[2]; Table 9, application rate 200 ppm a.i.
  Efficacy in % found: 0%
[2]; Table 9, application rate 400 ppm a.i.
  Efficacy in % found: 0%

## propineb [5.29]
[4]; Table 2, application rate 5 ppm a.i.
  Efficacy in % found: 0%
